Laboratory results published in patent US20220132856A1, “PHOTOSENSITIZER AND CHELATING AGENT COMBINATIONS FOR USE AS INSECTICIDES” (SUNCOR ENERGY INC., priority 2019, published 2022).

What was measured:
[1] = tested on: potato aphids (Macrosiphum euphorbiae); settings: for Mean Insects Mortality, % 24 HAT / Mean Insects Mortality, % 48 HAT: LED light exposure 14 h after treatment
Description: Potato aphids (Macrosiphum euphorbiae) were obtained from a colony maintained on Bell pepper (Capsicum annuum L.) plants grown in 1-gal plastic pots containing soil mix for greenhouse use (Sunshine LC1, Sun Gro Horticulture Canada Ltd.). Plants were watered as needed and fertilized twice a week with 20-20-20 water soluble fertilizers. Host plants were not exposed to pesticide treatments.
Pepper leaves infested with aphid nymphs were collected and each leaf was placed in 50 ml vials filled with water. Vials were covered with the lead with a small opening to prevent insects from drowning. Vials with host plant leaf infested with insects were placed in 500 ml transparent plastic containers and covered with transparent leads.
All treatments were applied as a fine spray using a hand-held plastic spray bottle. Each treatment was replicated 4 times. Water treatment was used as a Control.
After 14 h of exposure to LED light or dark insects were kept at a regular 14 h/10 h (light/night) photoperiod. Containers with insects were arranged in a randomized fashion. The experimental rack was placed in the Plant Growth Room at 24-25° C.
The number of live aphids on each leaf (replicate/container) was counted before application of the treatments, as well as 24 h and 48 h after the treatments. The insects were examined using 10× magnifying glass. Aphids were considered dead if no movement was detected after mechanical stimulation with the paintbrush.
Percentage of mortality was calculated by using the numbers of live and dead aphids. Percentage of mortality was rated as zero, when number of insects in the sample increased during the experiment (aphids females gave birth to nymphs).

[2] = tested on: Silverleaf whitefly (Bemesia argentifolii); experiment: Silverleaf whitefly live nymph count on sprayed poinsettia (Example 3); format: in vivo; settings: for Mean number of whitefly live nymphs/sample −1 DAA: 1 day before treatments application (baseline); for Mean number of whitefly live nymphs/sample 6 DAA: 6 days after first application, sunlight 8 h after spray; for Mean number of whitefly live nymphs/sample 13 DAA: 13 days after first application (6 days after application 2); for Mean number of whitefly live nymphs/sample 20 DAA: 20 days after first application (13 days after application 2); for Mean number of whitefly live nymphs/sample 28 DAA: 28 days after application 1 (21 days after application 2)
Description: The experiments were conducted in a greenhouse. Whiteflies were maintained on Common Poinsettia plants (Euphorbia pulcherrima) in the Greenhouse. Host plants and experimental plants were not initially exposed to pesticide treatments.
Experimental poinsettia plants were grown from the plug stage in 6.5″ plastic pots filled with Sunshine #4 soil mix. The plants were irrigated every day and soluble fertilizer 20-20-20 @ 200 ppm was applied twice weekly.
The poinsettia plants were placed for 7 days to whitefly infected the greenhouse to obtain uniform colonies of insect nymphs on introduced plants. After 7 days, the plants were removed from the infested greenhouse and whitefly nymph population was counted using the discs method.
(§1) Two 5.47 cm^2 discs were taken from each plant replicate, insects were observed under a stereoscope and counted. The discs were taken from the mid to upper strata areas of the plant as this area is preferred by insects for eggs laying and nymphs development. Upon initiation of the experiment the whitefly population was considered uniform.
Treatments were applied with CO2 backpack sprayer with a single solid cone nozzle (TG1) at 60 psi. Plants were thoroughly sprayed with tested treatments and immediately exposed to direct sunlight for 8 h before returning to the greenhouse setting. For each treatment, five single plant replicates were used. After 8 h of outside sun exposure all plants were carefully moved into the greenhouse and placed on a wire mesh bench in RCB design. A second application of treatments was made 7 days after the first application using the same methodology.
The number of whitefly nymphs per disc was counted at 1 day before treatments application (DAA), 6 days after first application (DAA), 13 days after first application (or 6 days after application 2), 20 days after first application 1 (or 13 days after application 2) and 28 days after application 1 (or 21 days after application 2).

[3] = tested on: Common Poinsettia plants (Euphorbia pulcherrima); settings: 0=healthy plants, 10=dead plants
Description: Poinsettia plants were evaluated for phytotoxicity after treatments. Phytotoxicity on the plants was rated 0 to 10, where 0=healthy plants, 10=dead plants at 6 DAA and 13DAA. Ratings were based on visual observations for symptoms such as chlorosis, necrosis, deformation, stunting and compared to plants in the untreated control.

[4] = tested on: Silverleaf whitefly (Bemesia argentifolii); experiment: Silverleaf whitefly suppression on sprayed poinsettia (Example 4); format: in vivo; settings: whitefly nymphs, two sprays 7 days apart, sunlight 2 days; for Insects Suppression, % 6 DAT2: 6 days after second application; for Insects Suppression, % 13 DAT2: 13 days after second application
Description: The experiments were conducted in a greenhouse. Whiteflies were maintained on Common Poinsettia plants (Euphorbia pulcherrima) cv Prestige Red in the Greenhouse. Host plants and experimental plants were not initially exposed to pesticide treatments.
Experimental poinsettia plants were grown in 6.5″ plastic pots filled with Sunshine #4 soil mix. The plants were irrigated every day and soluble fertilizer 20-20-20 @ 200 ppm was applied twice weekly.
The poinsettia plants were placed into a whitefly infected greenhouse for 30 days to obtain uniform colonies of insect nymphs on the plants. After 30 days, the infested plants were moved from the infested greenhouse and placed outside of the greenhouse for a two-day adaptation period prior to the treatment. Whitefly nymph population was counted one day prior to the treatment using the discs method.
as §1, with “from each replicate, insects” for “from each plant replicate, insects”, “were taken from the randomly collected leaves from the” for “were taken from the”
Treatments were applied two times with a 7-day interval using CO2 backpack sprayer with a single hollow cone nozzle (TVXK-3) at 40 psi. Plants were thoroughly sprayed with tested treatments and immediately exposed to direct sunlight for 2 days before returning to the greenhouse setting. For each treatment, six single plant replicates were used. After 2 days of outside sun exposure, all plants were carefully moved into the separate greenhouse and placed on a wire mesh bench in a Completely Randomized design. A second application of treatments was made 7 days after the first application using the same methodology.
The number of whitefly nymphs per disc was counted at 6 and 13 days after second foliar application (6 DAT2, 13DAT2). The Plants were evaluated for phytotoxicity at 6 days after each foliar spray.

[5] = tested on: German cockroach (Blatella germanica); experiment: German cockroach nymph suppression, treatment fed in 1% sucrose solution, light or dark; format: in vivo; settings: cockroach nymphs
Description: A small German cockroach colony (Blatella germanica) was purchased from Benzon Research (USA). Cockroach mix sex nymphs were used as model insect.
The experiments were conducted in a lab. Insectary at 25° C. in light and dark conditions. Light condition: 12 h light/12 h dark photoperiod. During the light period insects were exposed to Spectrum Physio Spec Indoor LED light 250 μmol m^−2 s^−1 Dark condition: insects were kept in complete dark. Insects were fed prior to treatments with 1% sucrose solution and were anesthetizing in the fridge for a few minutes before handling.
Ten homogenous cockroach nymphs (3-4 instar) were carefully transferred into each half pint clear glass jar abraded internally to provide surface for climbing and lined with 9 cm in diameter filter paper. The treatments were administered to cockroaches in a 1% sucrose solution positioned in 10 ml glass vials abraded externally for easy climbing insects and placed in jars. Fresh treatment solutions were replaced each 3 days. Glass jars were covered with mesh. […] Completely randomized design with 4 replications per treatment was used.
Treated insects were kept under specific conditions for 14 days and mortality count was performed at 7 and 14 days after exposure to treatments.

[6] = tested on: Common Poinsettia plants (Euphorbia pulcherrima) cv Prestige Red; experiment: Phytotoxicity on poinsettia plants (Example 4)
[7] = tested on: Citrus Mealybug (Planococcus citri Risso); experiment: Mealybug exposure to direct spray in petri dishes, instar mortality; format: in vivo; settings: mealybug instars sprayed in petri dishes, simulated daylight (LED) 14 h
Description: (§2) Colonies of Citrus Mealybug (Planococcus citri Risso) were maintained on Coleus plants (Solenostemon Scutellarioides L. Codd) grown in a Greenhouse under 24±4° C. and 16 h light/8 h dark photoperiod. […] Host plants were not initially exposed to pesticide treatments.
(§3) Small crowns of coleus shoots (4-6 cm in height, 6-7 leaves) were excised from the mature healthy plant and inserted into water-filled 50 ml plastic vials.
(§4) Homogenous mealybug instars-crawlers were carefully collected from the infested coleus plants using tip-moist soft fine paintbrush into a petri dish lined with filter paper. A total of 20 mealybug instars were released on upper leaves of each coleus shoot. […] Rack was located in the Plant Growth Room at 24-25° C.
(§5) Each treatment was replicated 4 times. Water treatment was used as a Control.
(§6) Insects were examined using 10×magnifying glass. […] The number of live and dead insects were recorded. Insect mortality was assessed for up to 96 hours after treatment (HAT-hours after treatment).
(§7) Percentage of citrus mealybug mortality for each treatment was calculated and data was subjected to One-way ANOVA combine with All Pairwise Multiple Comparison Procedures using the Fisher protected LSD mean separation test, […].
Mealybug instars were transferred into plastic containers lined with filter paper, sprayed and immediately exposed to light for […]. […]

[8] = tested on: Citrus Mealybug (Planococcus citri Risso); experiment: Mealybug exposure to direct spray on plants (coleus shoots), instar mortality; format: in vivo
Description: as §2, §3, §4, §5, §6, §7
Mealybug were introduced to coleus shoots. Two hours later, the shoots were sprayed with photosensitizer and placed under the light for 14 hours.

In the case of O=C([O-])CN(CCN(CC(=O)[O-])CC(=O)O)CC(=O)O.[Na+].[Na+] [0.1% Na2EDTA, Na2EDTA], the “Mean Insects Mortality, % 24 HAT” value ([1]; 24 HAT) is reported as 6%, the “Mean Insects Mortality, % 48 HAT” value ([1]; 48 HAT) is reported as 20% and the “Mean number of whitefly live nymphs/sample −1 DAA” value [2] is reported as 93 nymphs/sample. For the same compound, the “Mean number of whitefly live nymphs/sample 6 DAA” value [2] was 53 nymphs/sample, the “Mean number of whitefly live nymphs/sample 13 DAA” value [2] was 69.7 nymphs/sample and the “Mean number of whitefly live nymphs/sample 20 DAA” value [2] was 89.9 nymphs/sample. The “Mean number of whitefly live nymphs/sample 28 DAA” value [2] was 44.3 nymphs/sample, the “Phytotoxicity (0-10) 6 DAA” value [3] was 0 and the “Phytotoxicity (0-10) 13 DAA” value [3] was 0. For the same compound, the “Phytotoxicity (0-10) 20 DAA” value [3] was 0, the “Phytotoxicity (0-10) 28 DAA” value [3] was 0 and the “Insects Suppression, % 6 DAT2” value [4] was 36%. The “Insects Suppression, % 13 DAT2” value [4] was 31%, the “Insects Suppression %, 14 DAT, Light (12/12 h light-dark)” value ([5]; LED 250 μmol m^−2 s^−1, 12 h light/12 h dark) was 33% and the “Insects Suppression %, 14 DAT, Dark” value ([5]; complete dark) was 0%. The “Phytotoxicity % 13 DAT2” value [6] was 0%.
For C=CC1=C(C)c2cc3[nH]c(cc4nc(cc5[nH]c(cc1n2)c(C)c5CCC(=O)[O-])C(CCC(=O)[O-])=C4C)c(C)c3C=C.[Na+].[Na+] [0.1% PPIX, Protoporphyrin sodium salts], the “Insects Suppression, % 6 DAT2” value [4] was 41%, the “Insects Suppression, % 13 DAT2” value [4] was 28% and the “Phytotoxicity % 13 DAT2” value [6] was 0%.
In the case of O=S(=O)([O-])c1ccc(-c2c3nc(c(-c4ccc(S(=O)(=O)[O-])cc4)c4ccc([nH]4)c(-c4ccc(S(=O)(=O)O)cc4)c4nc(c(-c5ccc(S(=O)(=O)[O-])cc5)c5ccc2[nH]5)C=C4)C=C3)cc1.[Na+].[Na+].[Na+] [0.1% TPPS-Na3, meso-tetra-(4-sulfonatophenyl) porphyrin trisodium salts], the “Insects Suppression, % 6 DAT2” value [4] is reported as 37%, the “Insects Suppression, % 13 DAT2” value [4] is reported as 52% and the “Phytotoxicity % 13 DAT2” value [6] is reported as 0%.
Mg-Chlorophyllin [0.2 wt % MgChln] was tested, and the “Insect Mortality, % 24 HAT” value ([7]; 24 hours after treatment) was 32.8%, the “Insect Mortality, % 96 HAT” value ([7]; 96 hours after treatment) was 46.3% and the “Insect mortality, in words” value ([8]; infested plants sprayed, at 24 and 96 HAT) was “significant insect mortality”. The “Insect Mortality, % 24 HAT” value ([8]; mealybugs on coleus shoots sprayed, light 14 h, 24 hours after treatment) was 50%, the “Insect Mortality, % 96 HAT” value ([8]; mealybugs on coleus shoots sprayed, light 14 h, 96 hours after treatment) was 68.8% and the “Mean Insects Mortality, % 24 HAT” value ([1]; 24 HAT) was 24%. The “Mean Insects Mortality, % 48 HAT” value ([1]; 48 HAT) was 24%, the “Mean Insect Mortality, % 24 HAT” value ([1]; no light exposure (dark), dark exposure 24 h, 24 HAT) was 5% and the “Mean Insect Mortality, % 48 HAT” value ([1]; no light exposure (dark), dark exposure 24 h, 48 HAT) was 17%. The “Mean number of whitefly live nymphs/sample −1 DAA” value [2] was 111.4 nymphs/sample, the “Mean number of whitefly live nymphs/sample 6 DAA” value [2] was 68 nymphs/sample and the “Mean number of whitefly live nymphs/sample 13 DAA” value [2] was 56.6 nymphs/sample. The “Mean number of whitefly live nymphs/sample 20 DAA” value [2] was 74.8 nymphs/sample, the “Mean number of whitefly live nymphs/sample 28 DAA” value [2] was 30.1 nymphs/sample and the “Phytotoxicity (0-10) 6 DAA” value [3] was 0. For the same compound, the “Phytotoxicity (0-10) 13 DAA” value [3] was 0, the “Phytotoxicity (0-10) 20 DAA” value [3] was 0 and the “Phytotoxicity (0-10) 28 DAA” value [3] was 0.
In the case of chlorin e6 [0.1% Ce6], the “Insects Suppression, % 6 DAT2” value [4] is reported as 27%, the “Insects Suppression, % 13 DAT2” value [4] is reported as 28% and the “Phytotoxicity % 13 DAT2” value [6] is reported as 0%.
